These results are taken from BindingDB's records for doi:10.1016/j.bmcl.2005.10.011 (4Sc, 2006).

The test concerns the target T1, Dihydroorotate dehydrogenase (quinone), mitochondrial [30-395] (Homo sapiens, UniProt Q02127).
T1 construct: 30-395
The experiment in a line: DHODH Inhibition Assay. As to conditions: pH 8; 25 °C. Here is the method:
The assays were carried out by using a colorimetric DCIP method, which uses the colorimetric reagent 2, 6-dichlorophenolindophenol as the final electron acceptor. DCIP reduction is stoichiometrically equivalent to oxidation of dihydroorotate. Changes in absorbance were quantified in triplicate on a plate reader and data were analyzed to measure the reduction of DCIP as a decrease in absorbance at 610 nm. […] Each data point was recorded in triplicates on a single measurement day.

pIC50: −log10 of the molar value.

As usually defined, the pIC50 is the negative decadic logarithm of the IC50, by convention in mol/L. A lower pIC50 goes with a high IC50.

T1 sequence (Q02127 30-395): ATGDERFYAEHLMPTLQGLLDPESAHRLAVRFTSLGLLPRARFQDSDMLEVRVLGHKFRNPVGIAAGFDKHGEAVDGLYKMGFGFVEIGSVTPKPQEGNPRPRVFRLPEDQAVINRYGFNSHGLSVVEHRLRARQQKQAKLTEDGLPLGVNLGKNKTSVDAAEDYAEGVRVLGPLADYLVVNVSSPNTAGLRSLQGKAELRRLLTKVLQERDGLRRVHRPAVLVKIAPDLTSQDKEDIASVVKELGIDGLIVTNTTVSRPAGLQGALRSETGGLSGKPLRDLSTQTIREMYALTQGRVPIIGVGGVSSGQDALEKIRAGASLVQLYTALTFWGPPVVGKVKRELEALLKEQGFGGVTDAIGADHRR

On to `O=C(O)c1cscc1C(=O)Nc1c(F)cc(-c2cccc(OC(F)(F)F)c2)cc1F` [4-({2,6-difluoro-4-[3-(trifluoromethoxy)phenyl]phenyl}carbamoyl)thiophene-3-carboxylic acid], for which the negative-log IC50 (pIC50) is 8.00.
